In patent US20030069187A1, “Elastase inhibitors” (priority 2001, published 2003):

Experiments:
[1] = molecular target: T1, porcine pancreatic elastase (PPE) (Sus scrofa, UniProt P00772); experiment: Elastase inhibitory capacity assay with succinylated elastin substrate; assay type: biochemical; conditions: 0.029 U PPE, 200 μg succinylated elastin; for increase in elastase inhibitory capacity compared to total EDP: 37° C. 30 min, % inhibition standardized to μg protein, p<0.001
T1 construct: purchased Calbiochem, San Diego, Calif
T1 sequence (P00772 27-266): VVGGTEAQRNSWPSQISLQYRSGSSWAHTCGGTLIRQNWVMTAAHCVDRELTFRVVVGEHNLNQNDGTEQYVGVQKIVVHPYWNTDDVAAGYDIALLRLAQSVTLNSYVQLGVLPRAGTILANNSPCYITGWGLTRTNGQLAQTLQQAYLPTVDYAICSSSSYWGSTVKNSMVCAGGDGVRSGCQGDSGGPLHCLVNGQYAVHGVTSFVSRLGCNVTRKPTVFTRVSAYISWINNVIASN
Experimental: FIG. 1 is a bar graph depicting results from experiments in which the inhibitory capacity of each EDP isolate was evaluated in triplicate using 200 μg of succinylated elastin (Rao et al., 1997; Mathrubutham et al., 1998), 30 μg of Total EDP, […] of G-25 fractions and RP-HPLC fractions and 0.029 U PPE in 150 μl with 50 mM sodium borate pH8.5. Reactions were incubated at 37° C. for 30 minutes, then treated with 2,4,6-trinitrobenzene sufonic acid. Absorbance at A450nm was determined after 20 min at room temperature. Elastase inhibitory capacity was evaluated by comparing the activity of PPE in the presence and absence of EDP, where elastase in the absence of EDP was considered to represent 100% elastase activity. The data was standardized to protein content and is presented as % inhibition per μg of protein. […] PEP7 is VPG; PEP8 is AGIP and PEP9 is AFP.
Total EDP was fractionated on a G-25 Sephadex column equilibrated with 50 mM sodium borate pH 8.5 at a flow rate of 0.7 ml/minute. G-25 inhibitory fractions were then analyzed by reverse phase high performance liquid chromatography (RP-HPLC) using a C-18 column (Vydac, Hesperia, Calif.) with 5% acetonitrile, 0.1% triflouroacetic acid pH 2.3 as RP buffer at a flow rate of 0.5 ml/minutes and monitored at A205nm. Fractions were collected, dried, and resuspended in 50 μl water and assayed for elastase inhibitory capacity (Rao et al., 1997; Mathrabutham et al., 1998). The inhibitory capacity of G-25 and RP-HPLC EDP fractions were evaluated (Rao et al., 1997; Mathrabutham et al., 1998) using 3 μg of G-25 fraction and RP-HPLC peptide with 0.029 U PPE. Percentage inhibitory capacity was evaluated by comparing the activity of PPE in the presence and absence (100% activity) of EDP and standardized to μg protein. The inhibitor constant (Ki) was experimentally calculated (Lineweaver et al., 1936). […]

[2] = molecular target: elastase; conditions: other elastase inhibitors, compared with AFP; cited from earlier work

increase in elastase inhibitory capacity compared to total EDP [1] | Compound | other results
4.3 fold | Ala-Gly-Ile-Pro (AGIP; printed: Ala-Gly-Ile-Pro) | –
4.8 fold | Val-Pro-Gly [VPG] | –
– | VGVAPG | elastase inhibition (% inhibition per μg of protein) ([1]; FIG. 1): elastase inhibition is a characteristic that is not shared by all EDPs
– | CC(C)C[C@H](NC(=O)N[C@H](C(=O)N[C@@H](CCC(N)=O)C(=O)N[C@@H](C)C=O)[C@@H]1CCNC(=N)N1)C(=O)O [elastatinal] | Ki [2]: 50 µM
